According to ChEMBL document CHEMBL4052780, “Novel 1,2-dihydroquinazolin-2-ones: Design, synthesis, and biological evaluation against Trypanosoma brucei” (Bioorg Med Chem Lett, 2017):
pEC50: −log10 of the molar value. Converted amounts (≈) assume the structure as drawn.

Legend:
L6 = assay: Cytotoxicity against rat L6 cells assessed as reduction in cell viability after 72 hrs by resazurin based fluorescence assay; conditions: L6, 72 h
Trypanosoma cruzi = assay: Antitrypanosomal activity against Trypanosoma cruzi Tulahuen C4 amastigotes infected in rat L6 cells after 96 hrs by beta-galactosidase reporter gene assay; type: functional, cell-based; conditions: Tulahuen C4, L6, 96 h
[1] = Cytotoxicity against human MRC5 SV2 cells after 48 hrs by resazurin based fluorescence assay; type: cell-based; conditions: MRC-5 SV2, 48 h
THP-1 = assay: Cytotoxicity against human THP1 cells assessed as reduction in cell viability after 72 hrs by MTT assay; type: cell-based; conditions: THP-1, 72 h
[2] = system: Trypanosoma brucei brucei; assay: Antitrypanosomal activity against bloodstream form of Trypanosoma brucei brucei Lister 427 after 72 hrs by resazurin based fluorescence assay; type: functional; conditions: Lister 427, 72 h
Leishmania donovani = assay: Antileishmanial activity against intracellular […] stage of Leishmania donovani MHOM/ET/67/HU3 infected in human THP1 cells measured after 72 hrs by luciferase reporter gene assay; type: functional, cell-based; conditions: MHOM/ET/67/HU3, THP-1, 72 h
[3] = Intrinsic clearance in rat hepatocytes assessed per million cells; type: ADME, cell-based, Hepatocyte
[4] = Kinetic aqueous solubility of the compound by CLND method; type: physicochemical; conditions: read-out: Kinetic_solubility
[5] = Lipophilicity, log D of the compound at pH 7.4; type: physicochemical; conditions: buffer
Liver = assay: Intrinsic clearance in human liver microsomes; type: ADME, microsome
[6] = system: Trypanosoma brucei brucei; assay: Antitrypanosomal activity against bloodstream form of Trypanosoma brucei brucei Lister 427 after 70 hrs by resazurin based fluorescence assay; type: functional; conditions: Lister 427, 70 h

pEC50 (Trypanosoma cruzi) | pEC50 [2] | pEC50 (Leishmania donovani) | CLH [3] | solubility kinetic [4] | logD [5] | CLH (Liver) | pEC50 [6] | SMILES | pEC50 (L6) | pEC50 [1] | pEC50 (THP-1)
4.88 | 5.98 | < 5.30 | < 1 µL/min | 8 µM (≈ 2.31 µg/mL) | 2.2 | 19 µL/min/mg |  | O=c1nc(-c2ccccc2)c2cc(-c3cc[nH]n3)ccc2[nH]1 | < 4.30 | < 4.30 | < 4.30
4.85 | 5.69 | < 5.30 |  |  |  |  |  | CN(C)c1ccc(-c2ccc3[nH]c(=O)nc(-c4ccccc4)c3c2)cn1 | 4.30 | < 4.30 | < 4.30
5.06 | 5.43 | < 5.30 |  |  |  |  |  | O=c1nc(-c2ccccc2)c2cc(-c3ccccc3F)ccc2[nH]1 | 4.25 | < 4.30 | 4.30
< 4.70 | 5.00 | < 5.30 |  |  |  |  |  | O=c1nc(-c2ccccc2)c2cc(-c3cncnc3)ccc2[nH]1 | < 4.30 | < 4.30 | < 4.30
5.02 | 5.28 | < 5.30 |  |  |  |  |  | Cc1cncc(-c2ccc3[nH]c(=O)nc(-c4ccccc4)c3c2)c1 | < 4.30 | < 4.30 | < 4.30
4.83 | 5.28 | < 5.30 |  |  |  |  |  | Cc1ccc(-c2ccc3[nH]c(=O)nc(-c4ccccc4)c3c2)cn1 | < 4.30 | < 4.30 | < 4.30
< 4.70 | 5.25 | < 5.30 |  |  |  |  |  | Cn1cc(-c2ccc3[nH]c(=O)nc(-c4ccccc4)c3c2)cn1 | < 4.30 | < 4.30 | < 4.30
4.77 | 5.27 | < 5.30 |  |  |  |  |  | Cc1cc(-c2ccc3[nH]c(=O)nc(-c4ccccc4)c3c2)ccn1 | < 4.30 | < 4.30 | < 4.30
4.76 | 5.22 | < 5.30 |  |  |  |  |  | Cn1nccc1-c1ccc2[nH]c(=O)nc(-c3ccccc3)c2c1 | < 4.30 | < 4.30 | < 4.30
4.96 | 5.72 | < 5.30 |  |  |  |  | 6.08 | O=c1nc(-c2ccccc2)c2cc(-c3ccncc3)ccc2[nH]1 | < 4.30 | < 4.30 | 
5.05 | 5.29 | < 5.30 |  |  |  |  |  | Cc1ccncc1-c1ccc2[nH]c(=O)nc(-c3ccccc3)c2c1 | < 4.30 | < 4.30 | < 4.30
5.08 | 5.84 | < 5.30 |  |  |  |  |  | O=c1nc(-c2ccccc2)c2cc(-c3cn[nH]c3)ccc2[nH]1 | < 4.30 | 4.66 | < 4.30
< 4.70 | 4.85 | < 5.30 |  |  |  |  |  | O=c1nc(-c2ccccc2)c2ccc(-c3ccncc3)cc2[nH]1 |  | < 4.30 | < 4.30
4.80 | 5.27 | < 5.30 |  |  |  |  |  | O=c1nc(-c2ccccc2)c2cc(-c3cccnc3)ccc2[nH]1 | < 4.30 | < 4.30 | < 4.30

The remaining lines, values behind:

SMILES | pEC50 (Trypanosoma cruzi) | pEC50 [2] | pEC50 (Leishmania donovani) | CLH [3] | solubility kinetic [4] | logD [5] | CLH (Liver) | pEC50 [6] | pEC50 (L6) | pEC50 [1] | pEC50 (THP-1)
O=c1nc(-c2ccccc2)c2ccc(-c3cccc(N4CCOCC4)c3)cc2[nH]1 | < 4.70 | 5.31 | < 5.30 |  |  |  |  |  | 5.34 | < 4.30 | < 4.30
O=c1nc(-c2ccccc2)c2cc(-c3ccc(C(F)(F)F)nc3)ccc2[nH]1 | 4.73 | 5.28 | < 5.30 |  |  |  |  |  | < 4.30 | < 4.30 | < 4.30
CN1CCN(c2ccc3[nH]c(=O)nc(-c4ccccc4)c3c2)CC1 | < 4.70 | < 4.40 | < 5.30 |  | > 1000 µM |  |  |  | < 4.30 | < 4.30 | < 4.30
Cn1ccc(-c2cccc3[nH]c(=O)nc(-c4ccccc4)c23)n1 | < 4.70 | < 4.40 | < 5.30 |  |  |  |  |  | < 4.30 | < 4.30 | < 4.30
Cc1ccccc1-c1nc(=O)[nH]c2ccc(-c3cc[nH]n3)cc12 | 5.28 | 5.50 | < 5.30 |  | 13 µM (≈ 3.93 µg/mL) |  |  |  | < 4.30 | < 4.30 | < 4.30
Cc1noc(C)c1-c1ccc2[nH]c(=O)nc(-c3ccccc3)c2c1 | 4.92 | 5.67 | < 5.30 |  |  |  |  |  | < 4.30 | < 4.30 | < 4.30
COc1ccccc1-c1nc(=O)[nH]c2ccc(-c3cc[nH]n3)cc12 | 4.70 | 4.54 | < 5.30 |  |  |  |  |  | < 4.30 | < 4.30 | < 4.30
O=c1nc(-c2ccccc2)c2ccc(-c3cncnc3)cc2[nH]1 | < 4.70 | < 4.40 | < 5.30 |  |  |  |  |  |  | < 4.30 | < 4.30
O=c1nc(-c2ccccc2)c2ccc(-c3cccnc3)cc2[nH]1 | < 4.70 | < 4.40 | < 5.30 |  |  |  |  |  | 5.11 | < 4.30 | < 4.30
N#Cc1ccc(-c2ccc3[nH]c(=O)nc(-c4ccccc4)c3c2)cc1 | 4.76 | 5.77 | < 5.30 |  |  |  |  |  | < 4.30 | < 4.30 | < 4.30
O=c1nc(-c2ccccc2)c2cc(N3CCOCC3)ccc2[nH]1 | < 4.70 | 4.85 | < 5.30 |  | 324 µM (≈ 99.6 µg/mL) |  |  |  | < 4.30 | < 4.30 | < 4.30
O=c1nc(-c2ccccc2)c2cc(-c3ccc(N4CCOCC4)cc3)ccc2[nH]1 | 5.08 | 5.66 | < 5.30 |  |  |  |  |  | 4.64 | 4.62 | < 4.30
O=c1nc(-c2ccccc2)c2ccc(-c3ccc(F)cc3)cc2[nH]1 | < 4.70 | 5.33 | < 5.30 |  |  |  |  |  |  | < 4.30 | < 4.30
CNC(=O)c1cccc(-c2ccc3[nH]c(=O)nc(-c4ccccc4)c3c2)c1 | < 4.70 | 5.24 | < 5.30 |  |  |  |  |  | < 4.30 | < 4.30 | < 4.30
Cc1ccc2[nH]c(=O)nc(-c3ccccc3)c2c1 | < 4.70 | < 4.40 | < 5.30 |  | 80 µM (≈ 18.9 µg/mL) |  |  |  | < 4.30 | < 4.30 | < 4.30
O=c1nc(C2CCC2)c2cc(-c3cc[nH]n3)ccc2[nH]1 | 4.77 | 5.23 | < 5.30 |  | 74 µM (≈ 19.7 µg/mL) | 2.3 |  |  | < 4.30 | < 4.30 | < 4.30
N#Cc1ccc(-c2cccc3[nH]c(=O)nc(-c4ccccc4)c23)cc1 | < 4.70 | < 4.40 | < 5.30 |  |  |  |  |  | < 4.30 | < 4.30 | < 4.30
O=c1nc(-c2ccccc2)c2cc(-c3ccc(N4CCCC4)nc3)ccc2[nH]1 | 5.20 | 5.75 | < 5.30 |  |  |  |  |  | < 4.30 | < 4.30 | < 4.30
O=c1nc(-c2ccccc2)c2cc(-c3cnc4ccccc4c3)ccc2[nH]1 | 5.14 | 5.76 | < 5.30 |  |  |  |  |  | < 4.80 | < 4.30 | < 4.30
O=c1nc(-c2ccccc2)c2cc(-c3ccccc3)ccc2[nH]1 | < 4.70 | 5.31 | < 5.30 |  |  |  |  |  | < 4.30 | < 4.30 | < 4.30
O=c1nc(-c2ccccc2)c2cc(-c3cccc(F)c3)ccc2[nH]1 | 5.02 | 5.37 | < 5.30 |  |  |  |  |  | 4.64 | < 4.30 | < 4.30
O=c1nc(C2CCCCC2)c2cc(-c3cc[nH]n3)ccc2[nH]1 | 4.70 | 5.24 | < 5.30 |  | 5 µM (≈ 1.47 µg/mL) |  |  |  | < 4.30 | < 4.30 | < 4.30
O=c1nc(-c2ccccc2)c2cc(N3CCNCC3)ccc2[nH]1 | < 5.00 | < 4.70 | < 5.60 |  | > 1000 µM |  |  |  | < 4.60 | < 4.60 | < 4.60
O=c1nc(-c2ccccc2)c2cc(-c3cccc(N4CCOCC4)c3)ccc2[nH]1 | 4.82 | 5.29 | < 5.30 |  |  |  |  |  | < 4.30 | < 4.30 | < 4.30
O=c1nc(-c2ccccc2)c2cc(-c3ccc(F)cc3)ccc2[nH]1 | 5.06 | 5.41 | < 5.30 |  |  |  |  |  | 4.30 | < 4.30 | < 4.30
